Experimental findings from US20220232869A1, “Steviol Glycoside Sweeteners with Improved Flavor Profiles” (The Coca-Cola Company, priority 2015, published 2022) are described below.

A short description of this assay: Sensory evaluation of 5 Brix and 10 Brix acidified water beverages by 15 panelists. Type of assay: in vivo. Also noted: Astringency / Acidity / Sweet Aftertaste / Bitter Aftertaste / Overall Liking / Sweetness / Bitterness: scale not given here. As to conditions: panel score. On the procedure:
5 Brix and 10 Brix beverages were prepared by combining purified water containing 303 ppm citric acid and a sweetener. The 5 Brix beverages contained one of the following sweeteners: (i) 5% (wt/wt) sugar, (ii) 200 ppm A95 or (iii) 200 ppm of a 70 wt % Reb D/30 wt % Reb M blend. The 10 Brix beverages contained one of the following sweeteners: (i) 10% (wt/wt) sugar, (ii) 900 ppm A95 or (iii) 900 ppm of a 70 wt % Reb D/30wt % Reb M blend.
The beverages were served at room temperature in 2 oz clear plastic sample cups. 15 panelists evaluated the beverages for various tastes and flavors. Prior to sample evaluation, all panelists rinsed their palate with warm water. The assessors were instructed to take a sip of each beverage and rate the mouth feel and taste/flavor characteristics. 15 seconds after ingestion panelists were instructed to rate sweetness linger and aftertaste. Between samples evaluation a 1 minute rest period was allowed during which they rinsed their palate with warm water and 0.25% NaCl solution.
The various tastes and flavors measured in the evaluation are defined as follows: […]

Setting [1] is: 5 brix target, 5% sugar, 200 ppm A95 or 200 ppm blend.
Where [2] appears, read: 10 brix target, 10% sugar, 900 ppm A95 or 900 ppm blend.

For `OC[C@H]1O[C@@](CO)(O[C@H]2O[C@H](CO)[C@@H](O)[C@H](O)[C@H]2O)[C@@H](O)[C@@H]1O` [Sugar], under setting [1], the Acidity stood at 0.99, the Astringency is on record as 0.84, the “Bitter Aftertaste” value was 0.33 and the Bitterness amounted to 0.75. Also, under setting [1], the “Off-Note (Metallic/Licorice)” value is given as 0.52, the “Overall Liking” value is reported as 4.96, the “Sweet Aftertaste” value was 0.56 and the Sweetness was determined as 4.91. Under setting [2], the Acidity came out at 1.08, the Astringency turned out to be 0.92, the “Bitter Aftertaste” value was 0.37 and the Bitterness is listed as 0.55. Moreover, under setting [2], the “Off-Note (Metallic/Licorice)” value worked out at 0.51, the “Overall Liking” value was determined as 6.34, the “Sweet Aftertaste” value stood at 1.08 and the Sweetness was 8.45.
